Measurements taken from PubChem BioAssay AID1919000 (Molecular Pharmacology Branch, DTP, NCI, 2023).
Where “and” joins values, the source holds several entries; their conditions need not be identical. Equal values may be shown once. One block for each molecule: values may come before it.

Tested on: 653999-131-R-J2-PDC complex spheroids, growth % test/control
Experiment: Anticancer human tumor 653999-131-R-J2-PDC patient-derived lung adenocarcinoma cell line growth inhibition [AhR]
Conditions: for IC50: curve of first compound; for viability, T/C: stronger effect = lower value
Summary of the method: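 Agents were dosed in half-log steps down from roughly clinical Cmax, or from 10 microM where Cmax was unknown, alone and with AhR antagonists. Read-out: percent test/control growth of tumor spheroids containing HUVEC and MSC stromal cells.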

[1] = second compound 0.1 µM, first compound 0.0316 µM
[2] = second compound 0.1 µM, first compound 0.1 µM
[3] = second compound 0.1 µM, first compound 0.316 µM
[4] = second compound 0.1 µM, first compound 1 µM
[5] = second compound 0.1 µM, first compound 3.16 µM
[6] = second compound 0.1 µM, first compound 10 µM
[7] = second compound 0.316 µM, first compound 0.0316 µM
[8] = second compound 0.316 µM, first compound 0.1 µM
[9] = second compound 0.316 µM, first compound 0.316 µM
[10] = second compound 0.316 µM, first compound 1 µM
[11] = second compound 0.316 µM, first compound 3.16 µM
[12] = second compound 0.316 µM, first compound 10 µM
[13] = second compound 1 µM, first compound 0.0316 µM
[14] = second compound 1 µM, first compound 0.1 µM
[15] = second compound 1 µM, first compound 0.316 µM
[16] = second compound 1 µM, first compound 1 µM
[17] = second compound 1 µM, first compound 3.16 µM
[18] = second compound 1 µM, first compound 10 µM
[19] = second compound 3.16 µM, first compound 0.0316 µM
[20] = second compound 3.16 µM, first compound 0.1 µM
[21] = second compound 3.16 µM, first compound 0.316 µM
[22] = second compound 3.16 µM, first compound 1 µM
[23] = second compound 3.16 µM, first compound 3.16 µM
[24] = second compound 3.16 µM, first compound 10 µM
[25] = second compound 10 µM, first compound 0.0316 µM
[26] = second compound 10 µM, first compound 0.1 µM
[27] = second compound 10 µM, first compound 0.316 µM
[28] = second compound 10 µM, first compound 1 µM
[29] = second compound 10 µM, first compound 3.16 µM
[30] = second compound 10 µM, first compound 10 µM
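Further: spheroids exposed to agents for seven days.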
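Wherever viability, T/C is given: 100% = DMSO vehicle control viability.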

Compound: CC(C)c1c(-c2ccccc2)nc2c(C#N)c[nH]n2c1=O + Cc1cncc(-c2nc(NCCc3c[nH]c4ccccc34)c3ncn(C(C)C)c3n2)c1
IC50 (second compound 0.1 µM): > 10 µM | IC50 (second compound 0.316 µM): > 10 µM | IC50 (second compound 1 µM): > 10 µM | IC50 (second compound 3.16 µM): > 10 µM | IC50 (second compound 10 µM): > 10 µM | viability, T/C [1]: 112% | viability, T/C [2]: 99.8% | viability, T/C [3]: 102% | viability, T/C [4]: 95.8% | viability, T/C [5]: 93.9% | viability, T/C [6]: 102% | viability, T/C [7]: 115% | viability, T/C [8]: 114% | viability, T/C [9]: 120% | viability, T/C [10]: 104% | viability, T/C [11]: 97.7% | viability, T/C [12]: 99.2% | viability, T/C [13]: 128% | viability, T/C [14]: 118% | viability, T/C [15]: 122% | viability, T/C [16]: 136% | viability, T/C [17]: 125% | viability, T/C [18]: 116% | viability, T/C [19]: 128% | viability, T/C [20]: 117% | viability, T/C [21]: 121% | viability, T/C [22]: 115% | viability, T/C [23]: 129% | viability, T/C [24]: 120% | viability, T/C [25]: 63.2% | viability, T/C [26]: 58.8% | viability, T/C [27]: 62.6% | viability, T/C [28]: 63.7% | viability, T/C [29]: 62.2% | viability, T/C [30]: 63.7%

Compound: Nc1ccn(C2OC(CO)C(O)C2(F)F)c(=O)n1 (stereo unspecified)
viability, T/C (compound 0.0316 µM): 69.1% and 74.2% and 70.3% | viability, T/C (compound 0.1 µM): 63.2% and 70.2% and 62.9% | viability, T/C (compound 0.316 µM): 50.8% and 61.3% and 51.9% | viability, T/C (compound 1 µM): 41.5% and 56.2% and 43.5% | viability, T/C (compound 3.16 µM): 37.6% and 50.8% and 41.3% | viability, T/C (compound 10 µM): 32.7% and 46.7% and 36.1%

Compound: Nc1ncn(C2CC(O)C(CO)S2)c(=O)n1 (stereo unspecified) + CC(CO)NC(=O)c1cc(-c2ccc(Cl)cc2)nn(-c2cnn(C)c2)c1=O
IC50 (second compound 0.1 µM): > 0.3 µM | IC50 (second compound 0.316 µM): > 0.3 µM | IC50 (second compound 1 µM): > 0.3 µM | IC50 (second compound 3.16 µM): > 0.3 µM | IC50 (second compound 10 µM): > 0.3 µM | viability, T/C (second compound 0.1 µM, first compound 0.000949 µM): 101% | viability, T/C (second compound 0.1 µM, first compound 0.003 µM): 117% | viability, T/C (second compound 0.1 µM, first compound 0.00949 µM): 111% | viability, T/C (second compound 0.1 µM, first compound 0.03 µM): 103% | viability, T/C (second compound 0.1 µM, first compound 0.0949 µM): 97.3% | viability, T/C (second compound 0.1 µM, first compound 0.3 µM): 84.8% | viability, T/C (second compound 0.316 µM, first compound 0.000949 µM): 106% | viability, T/C (second compound 0.316 µM, first compound 0.003 µM): 121% | viability, T/C (second compound 0.316 µM, first compound 0.00949 µM): 134% | viability, T/C (second compound 0.316 µM, first compound 0.03 µM): 100% | viability, T/C (second compound 0.316 µM, first compound 0.0949 µM): 104% | viability, T/C (second compound 0.316 µM, first compound 0.3 µM): 88.1% | viability, T/C (second compound 1 µM, first compound 0.000949 µM): 119% | viability, T/C (second compound 1 µM, first compound 0.003 µM): 115% | viability, T/C (second compound 1 µM, first compound 0.00949 µM): 110% | viability, T/C (second compound 1 µM, first compound 0.03 µM): 103% | viability, T/C (second compound 1 µM, first compound 0.0949 µM): 110% | viability, T/C (second compound 1 µM, first compound 0.3 µM): 84% | viability, T/C (second compound 3.16 µM, first compound 0.000949 µM): 121% | viability, T/C (second compound 3.16 µM, first compound 0.003 µM): 101% | viability, T/C (second compound 3.16 µM, first compound 0.00949 µM): 104% | viability, T/C (second compound 3.16 µM, first compound 0.03 µM): 121% | viability, T/C (second compound 3.16 µM, first compound 0.0949 µM): 101% | viability, T/C (second compound 3.16 µM, first compound 0.3 µM): 96.4% | viability, T/C (second compound 10 µM, first compound 0.000949 µM): 117% | viability, T/C (second compound 10 µM, first compound 0.003 µM): 120% | viability, T/C (second compound 10 µM, first compound 0.00949 µM): 127% | viability, T/C (second compound 10 µM, first compound 0.03 µM): 127% | viability, T/C (second compound 10 µM, first compound 0.0949 µM): 116% | viability, T/C (second compound 10 µM, first compound 0.3 µM): 103%

Second part, led by results:

IC50 (second compound 0.1 µM): 3.73 µM | IC50 (second compound 0.316 µM): 3.66 µM | IC50 (second compound 1 µM): 4.13 µM | IC50 (second compound 3.16 µM): 3.52 µM | IC50 (second compound 10 µM): 3.64 µM
Compound: O=C(C=Cc1cccc(S(=O)(=O)Nc2ccccc2)c1)NO + CC(CO)NC(=O)c1cc(-c2ccc(Cl)cc2)nn(-c2cnn(C)c2)c1=O
viability, T/C [1]: 102% | viability, T/C [2]: 102% | viability, T/C [3]: 100% | viability, T/C [4]: 91.8% | viability, T/C [5]: 57.3% | viability, T/C [6]: 6.62% | viability, T/C [7]: 109% | viability, T/C [8]: 117% | viability, T/C [9]: 95.9% | viability, T/C [10]: 96.3% | viability, T/C [11]: 55% | viability, T/C [12]: 7.7% | viability, T/C [13]: 108% | viability, T/C [14]: 104% | viability, T/C [15]: 114% | viability, T/C [16]: 98.5% | viability, T/C [17]: 63.4% | viability, T/C [18]: 6.59% | viability, T/C [19]: 107% | viability, T/C [20]: 114% | viability, T/C [21]: 105% | viability, T/C [22]: 90.2% | viability, T/C [23]: 54.3% | viability, T/C [24]: 10.5% | viability, T/C [25]: 107% | viability, T/C [26]: 111% | viability, T/C [27]: 105% | viability, T/C [28]: 100% | viability, T/C [29]: 56.2% | viability, T/C [30]: 4.99%

IC50 (second compound 0.1 µM): 3.9 µM | IC50 (second compound 0.316 µM): 3.26 µM | IC50 (second compound 1 µM): 3.56 µM | IC50 (second compound 3.16 µM): 3.25 µM | IC50 (second compound 10 µM): 2.86 µM
Compound: O=C(C=Cc1cccc(S(=O)(=O)Nc2ccccc2)c1)NO + Cc1ccccc1N=Nc1ccc(NC(=O)c2ccnn2C)c(C)c1
viability, T/C [1]: 110% | viability, T/C [2]: 105% | viability, T/C [3]: 91.4% | viability, T/C [4]: 94.7% | viability, T/C [5]: 56.6% | viability, T/C [6]: 11.3% | viability, T/C [7]: 92.8% | viability, T/C [8]: 94.8% | viability, T/C [9]: 88% | viability, T/C [10]: 90.6% | viability, T/C [11]: 51.1% | viability, T/C [12]: 9.29% | viability, T/C [13]: 99.7% | viability, T/C [14]: 101% | viability, T/C [15]: 93.2% | viability, T/C [16]: 80.2% | viability, T/C [17]: 54.9% | viability, T/C [18]: 10.3% | viability, T/C [19]: 101% | viability, T/C [20]: 93.1% | viability, T/C [21]: 99% | viability, T/C [22]: 81.5% | viability, T/C [23]: 51.4% | viability, T/C [24]: 10.1% | viability, T/C [25]: 82.6% | viability, T/C [26]: 85.5% | viability, T/C [27]: 76.7% | viability, T/C [28]: 71.8% | viability, T/C [29]: 47.8% | viability, T/C [30]: 7.74%

IC50 (second compound 0.1 µM): > 10 µM | IC50 (second compound 0.316 µM): > 10 µM | IC50 (second compound 1 µM): > 10 µM | IC50 (second compound 3.16 µM): > 10 µM | IC50 (second compound 10 µM): > 10 µM
Compound: COc1cc(Nc2ncc3c(n2)-c2ccc(Cl)cc2C(c2c(F)cccc2OC)=NC3)ccc1C(=O)O + CC(CO)NC(=O)c1cc(-c2ccc(Cl)cc2)nn(-c2cnn(C)c2)c1=O
viability, T/C [1]: 95% | viability, T/C [2]: 80.9% | viability, T/C [3]: 77.6% | viability, T/C [4]: 76.8% | viability, T/C [5]: 66% | viability, T/C [6]: 64% | viability, T/C [7]: 92.6% | viability, T/C [8]: 73.5% | viability, T/C [9]: 74.8% | viability, T/C [10]: 62.4% | viability, T/C [11]: 70.8% | viability, T/C [12]: 65.2% | viability, T/C [13]: 98.2% | viability, T/C [14]: 76.1% | viability, T/C [15]: 83.9% | viability, T/C [16]: 70.8% | viability, T/C [17]: 77.8% | viability, T/C [18]: 68.5% | viability, T/C [19]: 94.2% | viability, T/C [20]: 83% | viability, T/C [21]: 79.1% | viability, T/C [22]: 74.7% | viability, T/C [23]: 77.5% | viability, T/C [24]: 77.4% | viability, T/C [25]: 92.8% | viability, T/C [26]: 81% | viability, T/C [27]: 78.4% | viability, T/C [28]: 74% | viability, T/C [29]: 67.9% | viability, T/C [30]: 80.4%
